Patent publication US20100217003A1, “1,2,3,4-TETRAHYDROISOQUINOLINE DERIVATIVES HAVING EFFECTS OF PREVENTING AND TREATING DEGENERATIVE AND INFLAMMATORY DISEASES” (priority 2006, published 2010)

Target: T1, GTP cyclohydrolase I (GTPCH) (Homo sapiens, UniProt P30793)
T1 sequence (P30793 1-250): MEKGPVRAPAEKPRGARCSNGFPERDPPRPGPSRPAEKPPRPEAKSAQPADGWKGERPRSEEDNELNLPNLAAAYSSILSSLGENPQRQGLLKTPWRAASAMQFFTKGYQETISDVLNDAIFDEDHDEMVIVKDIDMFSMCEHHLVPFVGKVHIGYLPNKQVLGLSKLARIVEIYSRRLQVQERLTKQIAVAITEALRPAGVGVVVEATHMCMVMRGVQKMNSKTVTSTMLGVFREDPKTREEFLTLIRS
Assay: Direct effect on catalysis of GTPCH
Format: biochemical
Conditions: not illustrated

SMILES: CCC(=O)N1CCc2cc(OC)c(O)cc2C1 [EHMTIQ (11a), 2-ethylcarbonyl-7-hydroxy-6-methoxy-1,2,3,4-tetrahydroisoquinoline]
- direct effect on catalysis of GTPCH: did not directly relate to the catalysis of GTPCH
